Test results: ChEMBL document CHEMBL1124750, “Diels-Alder adducts of vinyl porphyrins: synthesis and in vivo photodynamic effect against a rat bladder tumor” (1990)

Assays:
Rattus norvegicus [1] = organism: Rattus norvegicus; test: Compound evaluated for cytotoxicity in male Fischer CDF (F-344)/CrlBr rats; type: functional
Rattus norvegicus [2] = organism: Rattus norvegicus; test: Dose required in phototherapy for twelve days in tumor size detected in male Fischer CDF (F-344)/CrlBr rats; type: functional
Rattus norvegicus [3] = organism: Rattus norvegicus; test: Dose required in phototherapy for twelve days and free of palpable tumor in 100% of male Fischer CDF (F-344)/CrlBr rats
Rattus norvegicus [4] = organism: Rattus norvegicus; test: Dose required in phototherapy for twelve days and 73% control in tumor size in male Fischer CDF (F-344)/CrlBr rats; type: functional
Rattus norvegicus [5] = organism: Rattus norvegicus; test: Dose required in phototherapy for twelve days and palpable tumor detected in 50% of male Fischer CDF (F-344)/CrlBr rats; type: functional

Work on `CCC1=C(C)c2cc3[nH]c(cc4[nH]c(cc5nc(cc1n2)C(C)=C5CC)C1(C)C4=CCC(C#N)(C#N)C1(C#N)C#N)c(C)c3CC` (stereo unspecified) yielded a Dose (Rattus norvegicus [1]) of 1 mg/kg.
Compound `C=Cc1c(C)c2cc3nc(cc4nc(cc5[nH]c(cc1[nH]2)C1(C)C5=CCC(C(=O)OC)=C1C(=O)OC)C(C)=C4CCC(=O)OC)C(CCC(=O)OC)=C3C` (stereo unspecified) has a Dose (Rattus norvegicus [2]) of 5 mg/kg.
`CCC1=C(CC)c2cc3[nH]c(cc4nc(cc5[nH]c(cc1n2)C1=CCC(C#N)(C#N)C(C#N)(C#N)C15CC)C(CC)=C4CC)c(CC)c3CC` (stereo unspecified) gave a Dose (Rattus norvegicus [1]) of 1 mg/kg.
For `CCC1=C(C)c2cc3[nH]c(cc4nc(cc5[nH]c(cc1n2)C1(C)C5=CCC(C(=O)OC)=C1C(=O)OC)C(C)=C4CC)c(C)c3CC` (stereo unspecified), the Dose (Rattus norvegicus [3]) was 1 mg/kg.
Work on `C=Cc1c(C)c2cc3nc(cc4nc(cc5[nH]c(cc1[nH]2)C1(C)C5=CCC(C#N)(C#N)C1(C#N)C#N)C(C)=C4CCC(=O)OC)C(CCC(=O)OC)=C3C` (stereo unspecified) yielded a Dose (Rattus norvegicus [4]) of 1 mg/kg.
For `CCC1=C(CC)c2cc3[nH]c(cc4nc(cc5[nH]c(cc1n2)C1=CCC(C(=O)OC)=C(C(=O)OC)C15CC)C(CC)=C4CC)c(CC)c3CC` (stereo unspecified), the Dose (Rattus norvegicus [5]) was 1 mg/kg.
